# Experimental data published in the NIST ThermoML archive (doi:10.1016/j.tca.2009.06.015).
# ± gives the expanded uncertainty stated by the source.
# Legend:
# [1] = refractive index (Na D-line) (dimensionless); xn = mol fraction of the nth substance listed; conditions: 101 kPa, Liquid, Standard Abbe refractometry
# [2] = xn = mol fraction of the nth substance listed; conditions: 101 kPa, Liquid; for viscosity: Capillary tube (Ostwald / Ubbelohde) method; for mass density: Vibrating tube method
compound,measurement,setting,value
CCCCC(C)O (configuration not stated) [2-hexanol] + CC#N,refractive index,"[1]; 293.15 K, x2 = 0",1.4135 ± 0.0021
same,refractive index,"[1]; 293.15 K, x2 = 0.0964",1.4103 ± 0.002
same,refractive index,"[1]; 293.15 K, x2 = 0.1813",1.4077 ± 0.002
same,refractive index,"[1]; 293.15 K, x2 = 0.2574",1.4051 ± 0.002
same,refractive index,"[1]; 293.15 K, x2 = 0.3436",1.4014 ± 0.002
same,refractive index,"[1]; 293.15 K, x2 = 0.4483",1.3972 ± 0.002
same,refractive index,"[1]; 293.15 K, x2 = 0.5398",1.3917 ± 0.002
same,refractive index,"[1]; 293.15 K, x2 = 0.6495",1.3837 ± 0.002
same,refractive index,"[1]; 293.15 K, x2 = 0.758",1.3739 ± 0.002
same,refractive index,"[1]; 293.15 K, x2 = 0.8733",1.3621 ± 0.0021
same,refractive index,"[1]; 293.15 K, x2 = 0.9579",1.351 ± 0.0021
same,refractive index,"[1]; 298.15 K, x2 = 0",1.4116 ± 0.0021
same,refractive index,"[1]; 298.15 K, x2 = 0.0964",1.4096 ± 0.002
same,refractive index,"[1]; 298.15 K, x2 = 0.1813",1.4078 ± 0.002
same,refractive index,"[1]; 298.15 K, x2 = 0.2574",1.4054 ± 0.002
same,refractive index,"[1]; 298.15 K, x2 = 0.3436",1.4022 ± 0.002
same,refractive index,"[1]; 298.15 K, x2 = 0.4483",1.3975 ± 0.002
same,refractive index,"[1]; 298.15 K, x2 = 0.5398",1.3924 ± 0.002
same,refractive index,"[1]; 298.15 K, x2 = 0.6495",1.3837 ± 0.002
same,refractive index,"[1]; 298.15 K, x2 = 0.758",1.373 ± 0.002
same,refractive index,"[1]; 298.15 K, x2 = 0.8733",1.3595 ± 0.002
same,refractive index,"[1]; 298.15 K, x2 = 0.9579",1.348 ± 0.0021
same,refractive index,"[1]; 303.15 K, x2 = 0",1.4093 ± 0.0021
same,refractive index,"[1]; 303.15 K, x2 = 0.0964",1.4082 ± 0.002
same,refractive index,"[1]; 303.15 K, x2 = 0.1813",1.4064 ± 0.002
same,refractive index,"[1]; 303.15 K, x2 = 0.2574",1.4044 ± 0.002
same,refractive index,"[1]; 303.15 K, x2 = 0.3436",1.4021 ± 0.002
same,refractive index,"[1]; 303.15 K, x2 = 0.4483",1.3979 ± 0.002
same,refractive index,"[1]; 303.15 K, x2 = 0.5398",1.3925 ± 0.002
same,refractive index,"[1]; 303.15 K, x2 = 0.6495",1.3839 ± 0.002
same,refractive index,"[1]; 303.15 K, x2 = 0.758",1.374 ± 0.002
same,refractive index,"[1]; 303.15 K, x2 = 0.8733",1.3596 ± 0.002
same,refractive index,"[1]; 303.15 K, x2 = 0.9579",1.345 ± 0.002
same,refractive index,"[1]; 308.15 K, x2 = 0",1.4077 ± 0.0021
same,refractive index,"[1]; 308.15 K, x2 = 0.0964",1.4069 ± 0.002
same,refractive index,"[1]; 308.15 K, x2 = 0.1813",1.4061 ± 0.002
same,refractive index,"[1]; 308.15 K, x2 = 0.2574",1.4049 ± 0.002
same,refractive index,"[1]; 308.15 K, x2 = 0.3436",1.4026 ± 0.002
same,refractive index,"[1]; 308.15 K, x2 = 0.4483",1.3979 ± 0.002
same,refractive index,"[1]; 308.15 K, x2 = 0.5398",1.3925 ± 0.002
same,refractive index,"[1]; 308.15 K, x2 = 0.6495",1.3844 ± 0.002
same,refractive index,"[1]; 308.15 K, x2 = 0.758",1.3745 ± 0.002
same,refractive index,"[1]; 308.15 K, x2 = 0.8733",1.361 ± 0.002
same,refractive index,"[1]; 308.15 K, x2 = 0.9579",1.3469 ± 0.002
same,viscosity,"[2]; 293.15 K, x2 = 0",5.155 ± 0.061 mPa·s
same,viscosity,"[2]; 293.15 K, x2 = 0.0964",3.491 ± 0.044 mPa·s
same,viscosity,"[2]; 293.15 K, x2 = 0.1813",2.696 ± 0.03 mPa·s
same,viscosity,"[2]; 293.15 K, x2 = 0.2574",2.128 ± 0.024 mPa·s
same,viscosity,"[2]; 293.15 K, x2 = 0.3436",1.684 ± 0.018 mPa·s
same,viscosity,"[2]; 293.15 K, x2 = 0.4483",1.276 ± 0.014 mPa·s
same,viscosity,"[2]; 293.15 K, x2 = 0.5398",1.006 ± 0.011 mPa·s
same,viscosity,"[2]; 293.15 K, x2 = 0.6495",0.7676 ± 0.0082 mPa·s
same,viscosity,"[2]; 293.15 K, x2 = 0.758",0.582 ± 0.0064 mPa·s
same,viscosity,"[2]; 293.15 K, x2 = 0.8733",0.4444 ± 0.0049 mPa·s
same,viscosity,"[2]; 293.15 K, x2 = 0.9579",0.3758 ± 0.0042 mPa·s
same,mass density,"[2]; 293.15 K, x2 = 0",814.08 ± 0.3 kg/m3
same,mass density,"[2]; 293.15 K, x2 = 0.0964",812.14 ± 0.31 kg/m3
same,mass density,"[2]; 293.15 K, x2 = 0.1813",810.22 ± 0.31 kg/m3
same,mass density,"[2]; 293.15 K, x2 = 0.2574",808.34 ± 0.31 kg/m3
same,mass density,"[2]; 293.15 K, x2 = 0.3436",806.07 ± 0.31 kg/m3
same,mass density,"[2]; 293.15 K, x2 = 0.4483",803.11 ± 0.31 kg/m3
same,mass density,"[2]; 293.15 K, x2 = 0.5398",800.33 ± 0.31 kg/m3
same,mass density,"[2]; 293.15 K, x2 = 0.6495",796.76 ± 0.31 kg/m3
same,mass density,"[2]; 293.15 K, x2 = 0.758",792.88 ± 0.31 kg/m3
same,mass density,"[2]; 293.15 K, x2 = 0.8733",788.19 ± 0.31 kg/m3
same,mass density,"[2]; 293.15 K, x2 = 0.9579",784.29 ± 0.31 kg/m3
same,viscosity,"[2]; 298.15 K, x2 = 0",4.1 ± 0.05 mPa·s
same,viscosity,"[2]; 298.15 K, x2 = 0.0964",2.933 ± 0.033 mPa·s
same,viscosity,"[2]; 298.15 K, x2 = 0.1813",2.284 ± 0.025 mPa·s
same,viscosity,"[2]; 298.15 K, x2 = 0.2574",1.84 ± 0.02 mPa·s
same,viscosity,"[2]; 298.15 K, x2 = 0.3436",1.475 ± 0.015 mPa·s
same,viscosity,"[2]; 298.15 K, x2 = 0.4483",1.133 ± 0.012 mPa·s
same,viscosity,"[2]; 298.15 K, x2 = 0.5398",0.9062 ± 0.0094 mPa·s
same,viscosity,"[2]; 298.15 K, x2 = 0.6495",0.6995 ± 0.0073 mPa·s
same,viscosity,"[2]; 298.15 K, x2 = 0.758",0.5384 ± 0.0057 mPa·s
same,viscosity,"[2]; 298.15 K, x2 = 0.8733",0.4184 ± 0.0046 mPa·s
same,viscosity,"[2]; 298.15 K, x2 = 0.9579",0.3583 ± 0.004 mPa·s
same,mass density,"[2]; 298.15 K, x2 = 0",810.14 ± 0.31 kg/m3
same,mass density,"[2]; 298.15 K, x2 = 0.0964",808.14 ± 0.31 kg/m3
same,mass density,"[2]; 298.15 K, x2 = 0.1813",806.14 ± 0.31 kg/m3
same,mass density,"[2]; 298.15 K, x2 = 0.2574",804.19 ± 0.31 kg/m3
same,mass density,"[2]; 298.15 K, x2 = 0.3436",801.82 ± 0.31 kg/m3
same,mass density,"[2]; 298.15 K, x2 = 0.4483",798.72 ± 0.31 kg/m3
same,mass density,"[2]; 298.15 K, x2 = 0.5398",795.82 ± 0.31 kg/m3
same,mass density,"[2]; 298.15 K, x2 = 0.6495",792.09 ± 0.31 kg/m3
same,mass density,"[2]; 298.15 K, x2 = 0.758",788.02 ± 0.31 kg/m3
same,mass density,"[2]; 298.15 K, x2 = 0.8733",783.08 ± 0.31 kg/m3
same,mass density,"[2]; 298.15 K, x2 = 0.9579",779.02 ± 0.31 kg/m3
same,viscosity,"[2]; 303.15 K, x2 = 0",3.41 ± 0.04 mPa·s
same,viscosity,"[2]; 303.15 K, x2 = 0.0964",2.491 ± 0.027 mPa·s
same,viscosity,"[2]; 303.15 K, x2 = 0.1813",1.967 ± 0.021 mPa·s
same,viscosity,"[2]; 303.15 K, x2 = 0.2574",1.61 ± 0.017 mPa·s
same,viscosity,"[2]; 303.15 K, x2 = 0.3436",1.301 ± 0.014 mPa·s
same,viscosity,"[2]; 303.15 K, x2 = 0.4483",1.017 ± 0.01 mPa·s
same,viscosity,"[2]; 303.15 K, x2 = 0.5398",0.8212 ± 0.0085 mPa·s
same,viscosity,"[2]; 303.15 K, x2 = 0.6495",0.6409 ± 0.0067 mPa·s
same,viscosity,"[2]; 303.15 K, x2 = 0.758",0.5036 ± 0.0053 mPa·s
same,viscosity,"[2]; 303.15 K, x2 = 0.8733",0.3943 ± 0.0043 mPa·s
same,viscosity,"[2]; 303.15 K, x2 = 0.9579",0.3411 ± 0.0038 mPa·s
same,mass density,"[2]; 303.15 K, x2 = 0",806.13 ± 0.31 kg/m3
same,mass density,"[2]; 303.15 K, x2 = 0.0964",804.04 ± 0.31 kg/m3
same,mass density,"[2]; 303.15 K, x2 = 0.1813",801.94 ± 0.31 kg/m3
same,mass density,"[2]; 303.15 K, x2 = 0.2574",799.91 ± 0.31 kg/m3
same,mass density,"[2]; 303.15 K, x2 = 0.3436",797.49 ± 0.31 kg/m3
same,mass density,"[2]; 303.15 K, x2 = 0.4483",794.38 ± 0.31 kg/m3
same,mass density,"[2]; 303.15 K, x2 = 0.5398",791.33 ± 0.31 kg/m3
same,mass density,"[2]; 303.15 K, x2 = 0.6495",787.45 ± 0.31 kg/m3
same,mass density,"[2]; 303.15 K, x2 = 0.758",783.07 ± 0.31 kg/m3
same,mass density,"[2]; 303.15 K, x2 = 0.8733",777.74 ± 0.31 kg/m3
same,mass density,"[2]; 303.15 K, x2 = 0.9579",773.37 ± 0.31 kg/m3
same,viscosity,"[2]; 308.15 K, x2 = 0",2.819 ± 0.034 mPa·s
same,viscosity,"[2]; 308.15 K, x2 = 0.0964",2.134 ± 0.022 mPa·s
same,viscosity,"[2]; 308.15 K, x2 = 0.1813",1.708 ± 0.018 mPa·s
same,viscosity,"[2]; 308.15 K, x2 = 0.2574",1.42 ± 0.015 mPa·s
same,viscosity,"[2]; 308.15 K, x2 = 0.3436",1.155 ± 0.012 mPa·s
same,viscosity,"[2]; 308.15 K, x2 = 0.4483",0.9154 ± 0.0094 mPa·s
same,viscosity,"[2]; 308.15 K, x2 = 0.5398",0.7511 ± 0.0077 mPa·s
same,viscosity,"[2]; 308.15 K, x2 = 0.6495",0.5933 ± 0.0061 mPa·s
same,viscosity,"[2]; 308.15 K, x2 = 0.758",0.4724 ± 0.005 mPa·s
same,viscosity,"[2]; 308.15 K, x2 = 0.8733",0.3759 ± 0.0041 mPa·s
same,viscosity,"[2]; 308.15 K, x2 = 0.9579",0.3263 ± 0.0037 mPa·s
same,mass density,"[2]; 308.15 K, x2 = 0",802.06 ± 0.31 kg/m3
same,mass density,"[2]; 308.15 K, x2 = 0.0964",799.97 ± 0.31 kg/m3
same,mass density,"[2]; 308.15 K, x2 = 0.1813",797.84 ± 0.31 kg/m3
same,mass density,"[2]; 308.15 K, x2 = 0.2574",795.74 ± 0.31 kg/m3
same,mass density,"[2]; 308.15 K, x2 = 0.3436",793.18 ± 0.31 kg/m3
same,mass density,"[2]; 308.15 K, x2 = 0.4483",789.88 ± 0.31 kg/m3
same,mass density,"[2]; 308.15 K, x2 = 0.5398",786.73 ± 0.31 kg/m3
same,mass density,"[2]; 308.15 K, x2 = 0.6495",782.83 ± 0.31 kg/m3
same,mass density,"[2]; 308.15 K, x2 = 0.758",778.36 ± 0.31 kg/m3
same,mass density,"[2]; 308.15 K, x2 = 0.8733",772.84 ± 0.31 kg/m3
same,mass density,"[2]; 308.15 K, x2 = 0.9579",768.23 ± 0.31 kg/m3
